# Measured values taken from PMC8116058, “De novo macrocyclic peptides dissect energy coupling of a heterodimeric ABC transporter by multimode allosteric inhibition” (eLife, 2021).
# Columns and labels:
# TmrAB [1] = test: Competition of CP^F binding by substrate peptides (fluorescence anisotropy); parameters: species or system Thermus thermophilus; settings: C4^ATTO655 2 µM or R9LQK 200 µM, above their KD values
# Source text: (§1) To elucidate the mechanistic basis for the inhibition of ATP hydrolysis and substrate transport, we investigated the effects of CPs on substrate binding. In the first approach, fluorescent CP^Fs were used as reporters in fluorescence polarization. […] In addition, we examined the impact of CP^Bs on ATP binding to TmrAB by scintillation proximity assays (SPA) (Figure 4C). […] Taken together, CPs are high-affinity allosteric inhibitors of TmrAB that leave ATP binding and substrate interaction largely unaffected, while impairing ATP hydrolysis and substrate translocation across the membrane.
# (§2) Figure 4. […] (A) CP^Fs binding TmrAB is not affected by substrate peptide binding. […] For competition, C4^ATTO655 peptide (2 µM) or R9LQK peptide (200 µM) were added. (B) Binding of C4F peptide is not affected by CP^Bs. C4F peptides (50 nM) were mixed with TmrAB (4 µM), and fluorescence anisotropy was monitored as described in (A). For competition, C4^ATTO655 (10 µM) or CP^Bs (6 µM) were added. […] TmrAB (0.2 µM) were immobilized on SPA beads and incubated with ATP (3 μM, traced with ^3H-ATP) in the presence and absence of CP^Bs (1 µM each) for 30 min on ice. ATP binding was monitored by SPA. Background values were determined after releasing TmrAB complexes from the beads by adding imidazole (200 mM). The background signal in the absence of CP^Bs was set to 0 cpm. […] As this is an equilibrium experiment, this can be rationalized by the fact that CP13 stabilizes the ATP-bound OF conformer. Figure 4—source data 1. Source data for Figure 4.
# (§3) To determine equilibrium binding constants, CP^Fs (50 nM) were incubated with increasing concentrations of TmrAB-containing or empty liposomes. To probe the conformational selectivity, CP^Fs (50 nM) were mixed with detergent-solubilized IF TmrAB or OF TmrA^EQB. Before, OF TmrA^EQB was nucleotide-trapped by incubation with ATP (1 mM) and MgCl2 (3 mM) in the absence of CP^Fs for 5 min at 45°C. […] For peptide competition studies, RRYC^fluoresceinKSTEL (C4F, 50 nM) were incubated with detergent-solubilized TmrAB (4 µM), CP^Bs (6 µM), or C4^ATTO655 (10 µM). […] Fluorescence anisotropy was analyzed at λex/em of 485/520 nm using a microplate reader (CLARIOstar, BMG LABTECH). Fluorescence anisotropy was calculated using:(1) r=I||−I⊥/I||+2⋅I⊥ with I||: parallel intensity and I⊥: perpendicular intensity. Binding of CP^Fs were fitted by a one-site binding model (Langmuir 1:1) using:(2) Y=Bmax∙[L]/KD+[L] with Y: binding, Bmax: maximal binding, KD: equilibrium dissociation constant, and [L]: ligand concentration. Data represent mean ± SD from three experiments.
# TmrAB [2] = test: Competition of C4F peptide binding by CP^Bs (fluorescence anisotropy); parameters: species or system Thermus thermophilus
# Source text: as §1, §2, §3
# [3] = target: T1, TmrAB reconstituted in liposomes (Thermus thermophilus, UniProt Q72J04+Q72J05); test: Filter-based transport assay, CP^Fs tested as substrates; type: biochemical; settings: TmrAB 0.4 µM in liposomes, C4F 3 µM or CP^F 1 µM, 5 min 45°C
# T1 sequence (Q72J05 1-600): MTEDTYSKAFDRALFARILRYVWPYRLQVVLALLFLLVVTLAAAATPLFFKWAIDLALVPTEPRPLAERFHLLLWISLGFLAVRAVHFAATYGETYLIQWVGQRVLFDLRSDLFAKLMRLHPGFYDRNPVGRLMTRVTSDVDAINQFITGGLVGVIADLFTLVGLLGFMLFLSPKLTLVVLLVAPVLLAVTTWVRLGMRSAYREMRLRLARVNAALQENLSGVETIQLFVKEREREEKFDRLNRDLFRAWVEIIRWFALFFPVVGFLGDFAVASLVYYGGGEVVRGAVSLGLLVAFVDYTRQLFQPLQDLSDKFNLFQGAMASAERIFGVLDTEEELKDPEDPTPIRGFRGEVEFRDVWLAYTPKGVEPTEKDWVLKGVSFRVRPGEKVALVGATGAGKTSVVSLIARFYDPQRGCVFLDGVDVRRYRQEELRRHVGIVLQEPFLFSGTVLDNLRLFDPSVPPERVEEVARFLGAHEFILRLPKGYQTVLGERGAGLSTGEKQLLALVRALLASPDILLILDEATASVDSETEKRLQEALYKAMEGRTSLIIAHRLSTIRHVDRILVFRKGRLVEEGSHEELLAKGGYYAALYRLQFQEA
# T1 sequence (Q72J04 1-578): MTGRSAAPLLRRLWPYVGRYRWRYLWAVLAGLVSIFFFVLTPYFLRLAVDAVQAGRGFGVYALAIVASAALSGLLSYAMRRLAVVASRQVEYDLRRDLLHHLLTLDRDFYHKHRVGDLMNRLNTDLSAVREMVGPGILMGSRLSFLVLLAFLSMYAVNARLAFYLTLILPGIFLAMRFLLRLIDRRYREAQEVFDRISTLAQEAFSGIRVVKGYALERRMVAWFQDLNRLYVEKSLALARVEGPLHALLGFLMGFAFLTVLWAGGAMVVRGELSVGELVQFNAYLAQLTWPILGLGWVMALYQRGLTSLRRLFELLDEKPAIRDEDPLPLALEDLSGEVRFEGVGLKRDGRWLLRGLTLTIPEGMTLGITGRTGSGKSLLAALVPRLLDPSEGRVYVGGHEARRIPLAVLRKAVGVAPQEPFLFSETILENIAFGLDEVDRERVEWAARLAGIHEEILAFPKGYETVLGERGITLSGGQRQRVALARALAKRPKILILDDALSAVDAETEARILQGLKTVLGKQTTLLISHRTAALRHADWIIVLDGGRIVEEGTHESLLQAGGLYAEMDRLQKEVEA
# Source text: In order to investigate the functional impact of CPs, we examined the effect of the CPs on ATP hydrolysis and substrate transport of TmrAB (Figure 3A). We reconstituted TmrAB in liposomes and first assayed the ATPase activity. […] We next set out to investigate peptide transport by TmrAB using a filter-based transport assay. To investigate whether CPs are recognized as substrates by TmrAB, we added fluorescein-labeled CP^Fs and examined ATP-dependent translocation. In contrast to the linear substrate peptide C4F, none of the CP^Fs were transported by TmrAB (Figure 3C). Next, we examined ATP-dependent transport of C4F peptides in the presence and absence of the different CPs.
# Figure 3. CP^Fs are potent inhibitors of ATP turnover and substrate transport. (A) Experimental scheme of ATP hydrolysis and peptide transport by TmrAB. (B) CP^Fs inhibit ATP hydrolysis. TmrAB in liposomes (100 nM) was incubated with ATP (2 mM, traced with [γ^32P]-ATP), and MgCl2 (5 mM) in the presence and absence of CP^Fs (1 µM) for 10 min at 45°C. Autohydrolysis was determined in the absence of TmrAB, and background turnover was conducted in the presence of EDTA (10 mM). Release of [γ^32P] was quantified by thin layer chromatography. (C) CP^Fs are not transported by TmrAB. TmrAB (0.4 µM) reconstituted in liposomes was incubated with C4F peptide (3 µM) or CP^Fs (1 µM) in the presence of ATP/ADP (3 mM) and MgCl2 (5 mM) for 5 min at 45°C. Since CP^Fs were dissolved in maximal 0.5% (v/v) of DMSO, C4F plus 0.5% DMSO served as control. Proteoliposomes were washed on filter plates, and transported peptides were quantified at λex/em = 485/520 nm. (D) Inhibition of substrate translocation. TmrAB in liposomes (0.4 µM) were incubated with C4F peptide (3 µM), ATP/ADP (3 mM), and MgCl2 (5 mM) in the presence and absence of CP^Fs (1 µM) for 15 min at 45°C. Transported peptides were quantified as described in (C). In (B–C), mean values ± SD (n = 3) are shown. Figure 3—source data 1. Source data for Figure 3.
# TmrAB in liposomes (0.4 µM) were incubated with ATP/ADP (3 mM), MgCl2 (5 mM), C4F peptide (3 µM), and CP^Fs (1 µM) for 15 min at 45°C. […] Proteoliposomes were solubilized by adding SDS (1% [v/v]) in transport buffer for 10 min at 20°C. Transported peptides were quantified at λex/em = 485/520 nm using a microplate reader (CLARIOstar, BMG LABTECH).
# wild-type TmrAB = test: Nucleotide occlusion, wild-type TmrAB; type: biochemical, Thermus thermophilus; settings: TmrAB 2 µM; CP^F 4 µM or orthovanadate 1 mM; ATP 1 mM traced with [α32P]-ATP; 5 min 45°C; normalized to vanadate-trapped state
# Method: Figure 5. […] (A, B) CP6^F (A) or CP13^F (B, 50 nM each) were incubated with increasing concentrations of detergent-solubilized inward-facing TmrAB (in the absence of Mg-ATP) or outward-facing TmrA^EQB, which was trapped with Mg-ATP (1 mM) for 5 min at 45°C as described ([Hofmann et al., 2019]; [Stefan et al., 2020]). Immediately after, the fluorescence anisotropy was assayed at λex/em = 485/520 nm. The difference in fluorescence polarization was normalized to free and fully bound CP^F. Data were fitted by a one-site binding model. […] TmrAB (2 µM each) were mixed with CP^Fs (4 µM), ATP (1 mM, traced with [α^32P]-ATP), and MgCl2 (5 mM) for 5 min at 4°C or 45°C. Cold ATP (10 mM) was added, and freely exchangeable nucleotides were removed by rapid gel filtration. Occluded nucleotides were analyzed by thin layer chromatography and autoradiography. Representative radiograms for independent triplicates are shown. (D) Stably occluded nucleotides, [α^32P]-ATP and [α^32P]-ADP, were quantified by autoradiography. Data were normalized to the vanadate-trapped state. In (A, B, D), mean values ± SD (n = 3) are shown. Figure 5—source data 1. Source Data for Figure 5. Figure 5—figure supplement 1. […] (A) CP^Fs (50 nM each) were incubated with increasing concentrations of detergent-solubilized IF TmrAB in the inward-facing (IF) conformation (absence of Mg-ATP) or TmrA^EQB populated in the outward-facing (OF) conformation, which was trapped in the OF conformation by Mg-ATP (1 mM) after 5 min incubation at 45°C. The difference in fluorescence polarization was normalized to unbound (0%) and 100% bound CP^F. Data were fitted by a one-site binding model. Fluorescence anisotropy was recorded at λex/em = 485/520 nm. […] TmrA^EQB (2 µM) were incubated in the absence and presence of CP^Fs (4 µM each), ATP (1 mM, traced with [α^32P]-ATP), and MgCl2 (5 mM) for 5 min at 4°C or 45°C. Cold ATP (10 mM) was added, and free nucleotides were removed by rapid gel filtration. Occluded nucleotides were analyzed by thin layer chromatography and autoradiography. Representative radiograms for independent triplicates are shown. […] Figure 5—figure supplement 1—source data 1.
# We also examined the impact of CP^Fs on the IF-to-OF transition of wild-type TmrAB induced by ATP binding through nucleotide occlusion (stable trapping) as the readout. We induced the IF-to-OF switch with radiotraced [α^32P]-ATP for 5 min at 45°C in the presence and absence of CPs and removed unbound nucleotides by rapid gel filtration. Subsequently, the occluded nucleotides were identified and quantified by thin layer chromatography and autoradiography (Figure 5C, D).
# Detergent-solubilized TmrAB (2 µM) were incubated with ATP (1 mM) traced with [α^32P]-ATP (Hartmann Analytic), MgCl2 (5 mM), CP^Fs (4 µM), or orthovanadate (1 mM) for 5 min at 45°C. Cold ATP (10 mM) was added, and unbound nucleotides were removed by rapid gel filtration (Bio-Spin columns P-30, Bio-Rad). ATP (10 mM) was added, and samples were spotted onto polyethyleneimine cellulose plates (Merck Millipore). Thin-layer chromatography was performed using 0.75 M KH2PO4 pH 3.4.
compound,measurement,setting,value
"RRYQKSTEL [R9LQK, reference compound]",Effect of transported peptides on CP^F binding to TmrAB,TmrAB [1],did not affect binding of CP^Fs to TmrAB
"RRYC^fluoresceinKSTEL [C4F, reference compound]","Bound C4F peptide, fluorescence anisotropy",TmrAB [2]; listed as -: baseline of C4F 50 nM,0.023
same,"Bound C4F peptide, fluorescence anisotropy","TmrAB [2]; listed as C4F: C4F 50 nM + TmrAB 4 µM, no competitor",0.129
same,Transported peptide,[3]; ADP 3 mM (background),0.00 µmol·g/min
same,Transported peptide,[3]; ATP 3 mM,1.64 µmol·g/min
"RRYC^ATTO655KSTEL [C4^ATTO655, reference compound]","Bound C4F peptide, fluorescence anisotropy",TmrAB [2]; C4F 50 nM + TmrAB 4 µM + competitor (CP^B 6 µM or C4^ATTO655 10 µM),0.045
same,Competition of C4F peptide binding,TmrAB [2]; CP^B 6 µM or C4^ATTO655 10 µM as competitor,interfered with C4F peptide binding
same,Effect of transported peptides on CP^F binding to TmrAB,TmrAB [1],did not affect binding of CP^Fs to TmrAB
"[O]=[V]([O-])([O-])[O-] [Vanadate, orthovanadate, reference compound]","Occluded nucleotides, ADP",wild-type TmrAB,56.67%
same,"Occluded nucleotides, ATP",wild-type TmrAB,62.96%
